Assay [1] concerns CRF1R-mediated ERK1/2 phosphorylation. Nature of the assay: Modulation of CRF-stimulated ERK1/2 phosphorylation in COS-7 cells expressing HA-CRF1R. In kind it is cell-based. To be noted: wortmannin (0–100 nM), 30 min pretreatment; 100 nM CRF, 5 min. In short, it runs like this:
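Lysates were immunoblotted for phospho-ERK1/2 Thr202/Tyr204. Phosphorylation was quantified by densitometry as the mean of three to five independent experiments.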

For assay [2], the system named is CRF1R-mediated Akt phosphorylation. Nature of the assay: CRF-induced Akt phosphorylation at Ser473 in COS-7 cells expressing HA-CRF1R. To be noted: wortmannin 100 nM, 30 min pretreatment; 100 nM CRF, 5 min. In kind it is cell-based, human. On the procedure:
Plasmid pRK5 encoding the carboxyl terminus of βARK that contains its βγ-binding domain (ct-βARK) was kindly provided by Dr. W. Koch (Center for Translational Medicine, Temple University, Philadelphia, PA), which is a scavenger for G protein βγ subunits ([25]). […] Plasmid pUSEamp encoding dominant-negative Akt-K179M (dn-Akt) was from Upstate Biotechnology (Lake Placid, NY).
COS-7 cells (from the American Type Culture Collection) were cultured at 37°C in a humidified atmosphere of 95% air, 5% CO2, in DMEM supplemented with 10% FBS, 100 μg/ml streptomycin, and 100 units/ml penicillin (COS-7 growth medium). Transient transfections were performed using LipofectAMINE (Life Technologies: Gaithersburg, MD) as described previously ([27]). Cells were seeded at 8 × 10^5 cells/10-cm dish in COS-7 medium and cultured for 3 days before transfection. COS-7 cells were transfected in 5 ml/dish OptiMEM containing 10 μg/ml LipofectAMINE with empty vector, pcDNA3 encoding the HA-CRF1R or the HA-CRF1R-Δ386 mutant. […] After replacing the transfection medium with fresh growth medium, transfected COS-7 cells were cultured for 1 day. Subsequently, cells were re-seeded in 6-well plates and cultured for an additional day prior to the experiment.
The protocols for measuring total and phosphorylated ERK1/2, c-Src, PYK2, Akt, and EGFR have been previously published ([28], [29]). After cells were cultured to 60–70% confluence, they were serum-deprived for 24 h. On the day of the experiment, cells were treated with the indicated ligands and inhibitors. […] After treatment, cells were placed on ice, the media was aspirated, and the cells were washed twice with ice-cold PBS and lysed in 100 μl of Laemmli sample buffer 1X. The lysates were briefly sonicated, heated at 95°C for 5 min, and centrifuged for 5 min at 14,000 rpm. Resulting supernatants were loaded in separate lanes of a 10% SDS-PAGE gels and electrophoresed. Next, Western transfer on to PDVF membranes was completed. The Western blots were then probed with specific antibodies targeting phosphorylated and non-phosphorylated forms of ERK1/2, c-Src, PYK2, Akt, and EGFR for primary immunodetection. […] The labeled bands were quantified using the Quantity One 4.6.3 software program (Bio-Rad).
Figure 7 CRF mediates Akt activation. […] Total cell lysates were separated by SDS-PAGE and analyzed by immunoblotting with anti-p-Akt Ser^473, as described in Materials and Methods. Akt phosphorylation was quantitated by densitometry, and mean values were plotted from three to five independent experiments. […]

As for `COC[C@H]1OC(=O)c2coc3c2[C@@]1(C)C1=C(C3=O)[C@@H]2CCC(=O)[C@@]2(C)C[C@H]1OC(C)=O` [wortmannin], the “effect on CRF-stimulated ERK1/2 phosphorylation” value in assay [1] was “abolished CRF-stimulated ERK1/2 phosphorylation”. In addition, in assay [2], the “effect on CRF1R-mediated Akt signaling activation” value is given as “abolished CRF1R-mediated Akt signaling activation”.

For the origin of these results see publication PMC6921279 (Frontiers in Endocrinology, 2019).
